The test system of experiment [1] is secretion of gastric acid. As to the kind of experiment: Inhibitory action against secretion of gastric acid (pylorus-ligated rats, Shay method). Particulars: read-out: Suppressive action against secretion of gastric acid. The experiment is classed as in vivo, male Donryu rats. As to the method: Under ether anesthesia, the pylorus of the rat was ligated and each test compound was administered intraduodenally. Four hours later, each rat was killed and the stomach was removed to collect the gastric juice. The inhibitory action was determined by comparing the acid output which was obtained by titration to pH 7.0 with 0.1-N NaOH by means of an automatic titrator, with the corresponding value of a control rat prepared in the same manner except that a vehicle alone was administered.

A short description of experiment [2]: Water-immersion stress-induced erosions (gastric lesion model). Particulars: rat, 10 minutes before stressing, 7 hours immersion. The experiment is classed as in vivo, male Donryu rats. On the procedure:
Two different types of gastric lesion models were induced in male Donryu rats (180 to 240 g) which had been deprived of food but allowed free acess to water for 24 to 48 hours prior to experiments. Rats fasted for 24 hours before experiments were placed in a restraint cage. The animals were immersed vertically to the level of the xiphoid process in a water bath (21° C.) for 7 hours and then killed. The stomach of each rat was removed and inflated by injecting 10 ml of 1% formalin to fix the inner and outer layers of the gastric walls. This formalin treatment was performed in all of the following experiments. Subsequently, the stomach was incised along a greater curvature and examined for any erosion in the glandular portion. Each test compound or a vehicle alone was given orally 10 minutes before stressing.

In the next experiment the target is T1, H^+ +K^+ ATPase (Oryctolagus cuniculus, UniProt P27112).
T1 construct: gastric acid secretory cells of a rabbit gastric mucosa were isolated and vesicle containing H^+ +K^+ ATPase was prepared; from tissue; host or cells: rabbit gastric mucosa, acid secretory cells; vesicles by Ficoll discontinuous density gradient
T1 sequence (P27112 whole entry): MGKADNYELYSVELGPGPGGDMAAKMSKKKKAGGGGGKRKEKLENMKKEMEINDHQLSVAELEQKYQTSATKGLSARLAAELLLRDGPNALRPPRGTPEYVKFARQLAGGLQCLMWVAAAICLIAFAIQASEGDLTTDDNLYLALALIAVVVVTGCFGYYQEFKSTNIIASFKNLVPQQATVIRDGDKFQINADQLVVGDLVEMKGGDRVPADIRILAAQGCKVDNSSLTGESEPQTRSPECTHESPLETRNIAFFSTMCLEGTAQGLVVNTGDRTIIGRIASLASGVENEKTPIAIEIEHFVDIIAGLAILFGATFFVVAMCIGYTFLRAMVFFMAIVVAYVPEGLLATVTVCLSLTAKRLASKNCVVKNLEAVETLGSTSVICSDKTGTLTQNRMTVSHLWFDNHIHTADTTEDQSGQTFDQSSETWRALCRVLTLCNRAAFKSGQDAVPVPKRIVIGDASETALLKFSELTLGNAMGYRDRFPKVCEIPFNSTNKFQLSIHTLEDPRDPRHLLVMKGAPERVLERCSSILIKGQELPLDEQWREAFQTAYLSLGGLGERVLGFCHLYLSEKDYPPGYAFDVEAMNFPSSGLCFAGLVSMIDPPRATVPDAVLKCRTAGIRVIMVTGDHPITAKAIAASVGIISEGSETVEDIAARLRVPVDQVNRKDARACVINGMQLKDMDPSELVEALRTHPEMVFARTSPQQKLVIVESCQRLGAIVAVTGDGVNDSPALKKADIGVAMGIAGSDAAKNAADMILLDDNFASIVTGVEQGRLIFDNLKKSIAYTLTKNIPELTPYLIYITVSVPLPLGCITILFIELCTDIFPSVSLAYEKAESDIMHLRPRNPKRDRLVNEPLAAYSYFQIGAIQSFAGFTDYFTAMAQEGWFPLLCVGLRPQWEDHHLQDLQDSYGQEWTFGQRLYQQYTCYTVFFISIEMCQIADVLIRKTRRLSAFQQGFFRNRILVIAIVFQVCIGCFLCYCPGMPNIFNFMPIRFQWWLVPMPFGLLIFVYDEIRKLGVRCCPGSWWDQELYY
T1 sequence (P18597 whole entry partner): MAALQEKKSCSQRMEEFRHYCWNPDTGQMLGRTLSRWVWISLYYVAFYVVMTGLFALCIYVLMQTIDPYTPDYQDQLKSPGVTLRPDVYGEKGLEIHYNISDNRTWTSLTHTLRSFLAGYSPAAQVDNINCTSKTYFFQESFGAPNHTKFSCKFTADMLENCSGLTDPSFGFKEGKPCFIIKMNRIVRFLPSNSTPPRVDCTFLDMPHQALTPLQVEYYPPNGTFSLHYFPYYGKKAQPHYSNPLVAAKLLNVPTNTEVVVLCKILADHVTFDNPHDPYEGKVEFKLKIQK
In words: H+ + K+ ATPase inhibitory effect (vesicles from rabbit gastric mucosa cells). The experiment is classed as biochemical. Particulars: 2×10^-4 M test compound, 25 min room temperature preincubation at pH 6.0; reaction pH 7.4, 37° C., 15 min. As to the method:
Following the method of Forte et al [J. Applied Physiol., 32, 714-717 (1972)], gastric acid secretory cells of a rabbit gastric mucosa were isolated and vesicle containing H^+ +K^+ ATPase was prepared by centrifuging the cells in Ficoll of discontinuous density gradient. After the enzyme was incubated at room temperature for 25 min. in 0.5 ml of a solution which contained 5 mM of an imidazole buffer (pH 6.0) and 2×10^-4 M of each test compound, the mixture was heated to 37° C. at which it was allowed to stand for further 5 min. To the mixture was added 0.5 ml of a solution which contained 4 mM of magnesium chloride, 80 mM of an imidazole buffer (pH 7.4), 20 mM of potassium chloride and 4 mM of ATP. The resulting mixture was caused to react at 37° C. for 15 min., and 1 ml of a 24% solution of trichloroacetic acid was then added to terminate the reaction. The inorganic phosphorus liberated was quantitatively analyzed by the method proposed by Taussky and Shorr [J. Biol. Chem., 202, 675- 685 (1953)]. The K^+ -dependent activity of the ATPase was determined by subtracting its activity obtained when no potassium chloride was contained. The results are set forth in Table 1 in which Compound Nos. 1-7 are the sulfoxide derivatives prepared in the hereinafter-described Examples 1-7, respectively.

Experiment [3] can be described thus: HCl-ethanol-induced erosions (gastric lesion model). It is filed as in vivo, male Donryu rats. Particulars: rat, 30 minutes before ethanol treatment. On the procedure: Two different types of gastric lesion models were induced in male Donryu rats (180 to 240 g) which had been deprived of food but allowed free acess to water for 24 to 48 hours prior to experiments.
A hydrochloric acid-ethanol solution (150 mM HCl in 60% ethanol) was given orally to rats in a dose of 1 ml/200 g, which rats had been fasted for 24 hours before experiments. One hour later, each animal was killed and the stomach was examined for any erosion in the glandular portion. Each test compound or a vehicle alone was given orally 30 minutes before ethanol treatment.

Setting [4] is: Rattus norvegicus, intraduodenal, 4 h.
Setting [5] is: 100 mg/kg intraduodenal, rat, 4 hours.

Where two headings read alike, the source gives them in different places.

Results on eight molecules are retold here after patent US5106976A, “Fused pyrazine sulfoxide derivatives for use as antiulcer agents” (Nippon Chemiphar Co., Ltd., priority 1986, dated 1992).

In the case of `CNC(=NCCSCc1nc[nH]c1C)NC#N` [Cimetidine, N-cyano-N'-methyl-N"-[2-[[(5-methyl-1H-imidazol-4-yl)methyl]thio]-ethyl]guanidine, reference compound], in experiment [1] (setting [4]), the inhibition in vivo at 10 mg/kg stood at 25.3%, the inhibition in vivo at 30 mg/kg is 59.1% and the inhibition in vivo at 100 mg/kg turned out to be 80.3%. Further, the “Inhibition on Water-Immersion stress-induced erosions” value in experiment [2] (60 mg/kg oral) was 49%. In experiment [2] (200 mg/kg oral), the “Inhibition on Water-Immersion stress-induced erosions” value is listed as 87%.
Turning to `CN(C)c1ccccc1C[S+]([O-])c1nc2ncccc2[nH]1` (stereo not shown) [Compound No. 1, 2-(2-dimethylaminobenzylsulfinyl)imidazo[4,5-b]pyridine], in experiment [1] (10 mg/kg intraduodenal, rat, 4 hours), the inhibition in vivo at 10 mg/kg was determined as 53%. Also, the inhibition in vivo at 30 mg/kg in experiment [1] (30 mg/kg intraduodenal, rat, 4 hours) stood at 79%. For the same molecule, in experiment [1] (setting [5]), the inhibition in vivo at 100 mg/kg is 95.1%. At H^+ +K^+ ATPase, the inhibition at 200 µM was 92.3%. Moreover, the entries for the “Inhibition on HCl--Ethanol-induced Erosions” value in experiment [3] (10 mg/kg oral) and in experiment [3] (30 mg/kg oral) were 37% and 97%, respectively. Also, the “Inhibition on Water-Immersion stress-induced erosions” value in experiment [2] (30 mg/kg oral) worked out at 66%; in experiment [2] (100 mg/kg oral), 87%.
With `[O-][S+](Cc1ccccn1)c1cnc2ccccc2n1` (stereo not shown) [Compound No. 2, 2-(2-pyridylmethylsulfinyl)quinoxaline], the inhibition in vivo at 100 mg/kg in experiment [1] (setting [5]) came to 54.8%. Further, the inhibition at 200 µM on H^+ +K^+ ATPase came to 96.8%.
Turning to `Cc1nc2ccccc2nc1[S+]([O-])Cc1ccccn1` (stereo not shown) [Compound No. 3, 3-methyl-2-(2-pyridylmethylsulfinyl)quinoxaline], in experiment [1] (setting [5]), the inhibition in vivo at 100 mg/kg was found to be 54.7%. The inhibition at 200 µM on H^+ +K^+ ATPase worked out at 99.5%.
As to `Cc1nc2cccnc2nc1[S+]([O-])Cc1ccccn1` (stereo not shown) [Compound No. 4, 2-methyl-3-(2-pyridylmethylsulfinyl)pyrido[2,3-b]pyrazine], in experiment [1] (setting [5]), the inhibition in vivo at 100 mg/kg came to 96.7%. On H^+ +K^+ ATPase, the inhibition at 200 µM turned out to be 89.4%.
The corresponding values for `CN(C)c1ccccc1C[S+]([O-])c1cnc2ccccc2n1` (stereo not shown) [Compound No. 5, 2-(2-dimethylaminobenzylsulfinyl)quinoxaline] are 55.1% and 100%.
Taken in the same sequence, the figures for `Cc1nc2ccccc2nc1[S+]([O-])Cc1ccccc1N(C)C` (stereo not shown) [Compound No. 6, 2-(2-dimethylaminobenzylsulfinyl)-3-methylquinoxaline] were 89.6% and 100%.
The corresponding values for `Cc1cc2nc(C)c([S+]([O-])Cc3ccccc3N(C)C)nc2cc1C` (stereo not shown) [Compound No. 7, 2-(2-dimethylaminobenzylsulfinyl)-3,6,7-trimethylquinoxaline] are 46.9% and 80.8%.

The term inhibition denotes the share of the control response that was lost under treatment.
